Reference: PubChem BioAssay (NCI)
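How tested: cells in 96-well plates exposed to compound for 48 hours at five concentrations. GI50 marks 50% less growth. At the TGI there is no net growth.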

Legend:
Experiment in all cases: NCI anticancer screen, dose series, 48 h
[1] = system: NCI-H23 lung
[2] = system: SF-539 CNS
[3] = system: MDA-MB-435
[4] = system: A549 NSCLC
[5] = system: HOP-62 NSCLC
[6] = system: A498 renal
[7] = system: SK-MEL-5 melanoma
[8] = system: MDA-MB-231 breast
[9] = system: SK-OV-3 ovarian
[10] = system: SK-MEL-28 melanoma

| Compound | TGI [1] [µM] | TGI [2] [µM] | TGI [3] [µM] | TGI [4] [µM] | TGI [5] [µM] | TGI [6] [µM] | TGI [7] [µM] | TGI [8] [µM] | TGI [9] [µM] | TGI [10] [µM] | GI50 [1] [µM] | GI50 [2] [µM] | GI50 [3] [µM] | GI50 [4] [µM] | GI50 [5] [µM] | GI50 [6] [µM] | GI50 [7] [µM] | GI50 [8] [µM] | GI50 [9] [µM] | GI50 [10] [µM] |
| --- | --- | --- | --- | --- | --- | --- | --- | --- | --- | --- | --- | --- | --- | --- | --- | --- | --- | --- | --- | --- |
| CC(C)OC(=O)[C@@H](O)[C@H](CO)C1=CC([Si](C)(C)c2ccccc2)=CON1 | > 100 | > 100 | > 100 | > 100 | > 100 | > 100 | > 100 | > 100 | > 100 | > 100 | – | – | – | – | – | – | – | – | – | – |
| NC1CC(=O)c2sccc21 (stereo not given) | > 100 | > 100 | > 100 | > 100 | > 100 | > 100 | > 100 | > 100 | > 100 | > 100 | – | – | – | – | – | – | – | – | – | – |
| CC[C@@]12C=CC(=S)N(CCSc3ccccc3)[C@@H]1c1c(n(S(=O)(=O)c3ccc(OC)cc3)c3ccccc13)CC2 | > 100 | > 100 | > 100 | > 100 | > 100 | > 100 | > 100 | > 100 | > 100 | > 100 | – | – | – | – | – | – | – | – | – | – |
| C=CCCCCCCCCCOC1C=CC(OC(C)=O)C(COC(C)=O)O1 (stereo not given) | > 100 | > 100 | > 100 | > 100 | > 100 | > 100 | > 100 | > 100 | > 100 | > 100 | – | – | – | – | – | – | – | – | – | – |
| COc1cc2c(cc1OCCCC(=O)Nc1cc(C(=O)NCCCN(C)C)n(C)n1)N=CC1CCCN1C2=O (stereo not given) | > 26.2 | 22.1 | > 100 | > 41.6 | > 43.7 | 12.4 | 14 | > 39.9 | > 62.3 | 11.1 | – | – | – | – | – | – | – | – | – | – |
| COc1cc2c(cc1OC)-c1cc3cc(OC)c(OC)cc3c(=O)n1CC2 | > 100 | 50.9 | > 100 | > 100 | > 72.8 | 45.2 | 25.9 | > 70.4 | > 100 | > 100 | – | – | – | – | – | – | – | – | – | – |
| C#CCn1c(=O)c(Cl)cn(/C(=C/C(=O)OCC)C(=O)OCC)c1=O | 42.6 | 12.7 | 35.8 | > 62.8 | 37.8 | 40.8 | 30.6 | 35.1 | > 61.6 | 38.9 | – | – | – | – | – | – | – | – | – | – |
| NC(=O)CC(N=C1C(=O)OC(C(O)CO)C1=NC(CC(N)=O)C(=O)O)C(=O)O (stereo not given) | > 100 | > 100 | > 100 | > 100 | > 100 | > 100 | > 100 | > 100 | > 100 | > 100 | – | – | – | – | – | – | – | – | – | – |
| O=[N+]([O-])c1c2nc3n(c2cc2c1nc1n2CCC1)CCC3 | > 100 | > 100 | > 100 | > 100 | > 100 | > 100 | > 100 | > 100 | > 100 | > 100 | – | – | – | – | – | – | – | – | – | – |
| c1ccc(C2=NCCc3cc4c(cc32)OCO4)cc1 | > 100 | > 100 | > 100 | > 100 | > 100 | > 100 | > 100 | > 100 | > 100 | > 100 | – | – | – | – | – | – | – | – | – | – |
| CC12CCC(C(Nc3ccccn3)C1=O)C2(C)C (stereo not given) | > 100 | > 100 | > 100 | > 100 | > 100 | > 100 | > 100 | > 100 | > 100 | > 100 | – | – | – | – | – | – | – | – | – | – |
| O=C1C(NCCN2CCOCC2)=C(Cl)C(=O)c2ncccc21 | 2.73 | 2.53 | 0.343 | 3.36 | 3.63 | 3.98 | 1.1 | 4.71 | 2.73 | 2.99 | – | – | – | – | – | – | – | – | – | – |
| C=C(C(=O)OC)c1cc2ccccc2n1S(=O)(=O)c1ccccc1 | 11.5 | 3.66 | 7.28 | 31.9 | 11.1 | 5.69 | 5.36 | 6.16 | 26 | 5.79 | – | – | – | – | – | – | – | – | – | – |
| Oc1ccc(C#CCOc2ccccc2)cc1CNCCN(Cc1ccccn1)Cc1ccccn1 | 5.51 | 3.09 | 3.44 | 3.47 | 2.96 | 2.44 | 2.84 | 2.96 | 2.27 | 5.91 | 1.83 | 1.6 | 1.82 | 1.33 | 0.762 | 1.19 | 1.49 | 1.38 | 0.944 | 2.04 |
| CCCCCCCCCCCCCCCCCCOCC(COP(=O)([O-])OCC[N+](C)(C)C)OC (stereo not given) | 61.6 | > 70.2 | > 100 | 49.3 | > 58.9 | 45.8 | 62.9 | > 100 | 46 | 57.9 | – | – | – | – | – | – | – | – | – | – |
